For three compounds, IC50 results are on record in US20240400577A1, “MODULATORS OF PROTEIN KINASES” (VIBLIOME THERAPEUTICS, LLC, priority 2021, published 2024).

Holding throughout (assay): Kinase panel enzymatic inhibition assay (Nanosyn)
Common to all, as to assay type: biochemical

For one assay, the target named is T1, ITK (Homo sapiens, UniProt Q08881).
T1 construct: Nanosyn (contract laboratory that ran the panel)
T1 sequence (Q08881 1-620): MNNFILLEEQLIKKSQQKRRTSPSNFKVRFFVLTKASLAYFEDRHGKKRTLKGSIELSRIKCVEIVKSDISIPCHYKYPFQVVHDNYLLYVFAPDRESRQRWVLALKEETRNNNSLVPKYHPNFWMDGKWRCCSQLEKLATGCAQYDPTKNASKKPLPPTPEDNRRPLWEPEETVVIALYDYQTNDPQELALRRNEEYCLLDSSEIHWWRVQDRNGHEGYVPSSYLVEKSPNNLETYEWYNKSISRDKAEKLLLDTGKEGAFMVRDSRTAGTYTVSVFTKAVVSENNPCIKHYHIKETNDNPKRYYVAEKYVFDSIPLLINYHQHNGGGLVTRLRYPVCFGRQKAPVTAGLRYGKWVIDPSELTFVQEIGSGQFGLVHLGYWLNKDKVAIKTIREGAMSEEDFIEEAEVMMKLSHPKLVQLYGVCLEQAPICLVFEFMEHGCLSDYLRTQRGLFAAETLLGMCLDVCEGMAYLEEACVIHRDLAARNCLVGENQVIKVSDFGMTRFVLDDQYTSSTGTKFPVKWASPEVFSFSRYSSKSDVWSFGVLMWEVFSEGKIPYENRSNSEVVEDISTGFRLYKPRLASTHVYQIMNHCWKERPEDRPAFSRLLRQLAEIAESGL
The note with it: ATP at Km; 30-minute pre-incubation; read-out: kinase inhibition in terms of IC50, ITK. A digest of the protocol:
(§1)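 Enzymatic inhibition measured within a panel of at least 300 kinases, using a validated format such as Caliper LabChip mobility shift, ADP detection or time-resolved fluorescence. Compounds tested at 5 μM with ATP at each kinase's Km, after a 30-minute pre-incubation. Values given as percent inhibition or IC50.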

Another assay has as its target T2, RIPK1 (Homo sapiens, UniProt Q13546).
T2 construct: purchased Nanosyn
T2 sequence (Q13546 1-671): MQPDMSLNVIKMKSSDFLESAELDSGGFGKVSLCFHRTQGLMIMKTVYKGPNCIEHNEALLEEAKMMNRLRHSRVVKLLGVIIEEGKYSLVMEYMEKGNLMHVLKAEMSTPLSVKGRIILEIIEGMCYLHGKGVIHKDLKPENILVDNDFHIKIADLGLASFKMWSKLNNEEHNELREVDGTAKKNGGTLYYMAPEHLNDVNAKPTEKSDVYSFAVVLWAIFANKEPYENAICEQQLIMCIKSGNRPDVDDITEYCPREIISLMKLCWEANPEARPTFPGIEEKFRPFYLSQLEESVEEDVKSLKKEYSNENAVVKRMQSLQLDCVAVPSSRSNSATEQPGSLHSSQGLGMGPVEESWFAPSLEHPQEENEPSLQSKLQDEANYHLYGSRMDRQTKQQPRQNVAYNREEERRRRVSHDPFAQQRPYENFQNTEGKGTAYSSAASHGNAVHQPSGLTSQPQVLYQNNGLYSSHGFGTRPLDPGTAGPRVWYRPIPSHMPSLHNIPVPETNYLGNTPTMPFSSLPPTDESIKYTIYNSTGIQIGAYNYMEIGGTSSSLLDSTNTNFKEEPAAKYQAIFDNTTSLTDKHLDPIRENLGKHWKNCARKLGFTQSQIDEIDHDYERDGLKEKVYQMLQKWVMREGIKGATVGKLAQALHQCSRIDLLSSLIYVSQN
As to conditions: ATP at Km; 30-minute pre-incubation; read-out: kinase inhibition in terms of IC50, RIPK1. The method in brief: as §1

The target of the next assay is T3, RIPK2 (Homo sapiens, UniProt O43353).
T3 construct: purchased Nanosyn
T3 sequence (O43353 whole entry): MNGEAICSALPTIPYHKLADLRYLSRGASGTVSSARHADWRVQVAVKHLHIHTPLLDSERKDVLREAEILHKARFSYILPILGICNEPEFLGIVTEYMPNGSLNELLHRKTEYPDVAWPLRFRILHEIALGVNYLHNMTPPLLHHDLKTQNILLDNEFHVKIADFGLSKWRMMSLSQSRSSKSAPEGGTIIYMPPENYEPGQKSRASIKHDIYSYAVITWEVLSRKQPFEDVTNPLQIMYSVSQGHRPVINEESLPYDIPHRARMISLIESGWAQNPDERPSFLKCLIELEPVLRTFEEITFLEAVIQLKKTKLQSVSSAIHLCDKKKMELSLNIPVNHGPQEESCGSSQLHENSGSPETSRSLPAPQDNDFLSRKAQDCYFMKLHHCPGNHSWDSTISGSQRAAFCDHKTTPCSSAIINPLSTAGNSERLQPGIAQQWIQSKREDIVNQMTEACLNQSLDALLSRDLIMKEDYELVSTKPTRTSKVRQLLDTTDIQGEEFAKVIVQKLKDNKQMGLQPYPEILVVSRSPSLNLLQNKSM
The note with it: ATP at Km; 30-minute pre-incubation; read-out: kinase inhibition in terms of IC50, RIPK2. A digest of the protocol:
as §1

The next assay deals with T4, RIPK3 (Homo sapiens, UniProt Q9Y572).
T4 construct: purchased Nanosyn
T4 sequence (Q9Y572 whole entry): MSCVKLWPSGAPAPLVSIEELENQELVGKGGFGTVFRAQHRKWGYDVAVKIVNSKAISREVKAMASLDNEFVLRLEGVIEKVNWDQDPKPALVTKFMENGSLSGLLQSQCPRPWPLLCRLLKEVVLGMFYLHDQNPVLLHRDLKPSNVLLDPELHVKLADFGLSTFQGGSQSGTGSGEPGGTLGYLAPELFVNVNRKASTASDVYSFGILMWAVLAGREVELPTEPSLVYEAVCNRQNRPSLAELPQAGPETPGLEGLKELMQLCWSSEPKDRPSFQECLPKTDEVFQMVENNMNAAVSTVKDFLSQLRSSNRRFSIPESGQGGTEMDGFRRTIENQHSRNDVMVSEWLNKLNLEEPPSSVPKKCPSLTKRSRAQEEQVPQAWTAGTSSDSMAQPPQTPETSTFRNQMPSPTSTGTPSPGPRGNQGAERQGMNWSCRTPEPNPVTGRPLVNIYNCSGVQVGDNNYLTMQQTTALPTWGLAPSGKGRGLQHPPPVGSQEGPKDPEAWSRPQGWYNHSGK
As to conditions: ATP at Km; 30-minute pre-incubation; read-out: kinase inhibition in terms of IC50, RIPK3. The method in brief: as §1

The next assay has as its target T5, TYK2 (Homo sapiens, UniProt P29597).
T5 construct: purchased Nanosyn
As to conditions: ATP at Km; 30-minute pre-incubation; read-out: kinase inhibition in terms of IC50, TYK2. The method in brief: as §1

Another assay concerns the target T6, TYRO3 (Homo sapiens, UniProt Q06418).
T6 construct: purchased Nanosyn
T6 sequence (Q06418 41-890): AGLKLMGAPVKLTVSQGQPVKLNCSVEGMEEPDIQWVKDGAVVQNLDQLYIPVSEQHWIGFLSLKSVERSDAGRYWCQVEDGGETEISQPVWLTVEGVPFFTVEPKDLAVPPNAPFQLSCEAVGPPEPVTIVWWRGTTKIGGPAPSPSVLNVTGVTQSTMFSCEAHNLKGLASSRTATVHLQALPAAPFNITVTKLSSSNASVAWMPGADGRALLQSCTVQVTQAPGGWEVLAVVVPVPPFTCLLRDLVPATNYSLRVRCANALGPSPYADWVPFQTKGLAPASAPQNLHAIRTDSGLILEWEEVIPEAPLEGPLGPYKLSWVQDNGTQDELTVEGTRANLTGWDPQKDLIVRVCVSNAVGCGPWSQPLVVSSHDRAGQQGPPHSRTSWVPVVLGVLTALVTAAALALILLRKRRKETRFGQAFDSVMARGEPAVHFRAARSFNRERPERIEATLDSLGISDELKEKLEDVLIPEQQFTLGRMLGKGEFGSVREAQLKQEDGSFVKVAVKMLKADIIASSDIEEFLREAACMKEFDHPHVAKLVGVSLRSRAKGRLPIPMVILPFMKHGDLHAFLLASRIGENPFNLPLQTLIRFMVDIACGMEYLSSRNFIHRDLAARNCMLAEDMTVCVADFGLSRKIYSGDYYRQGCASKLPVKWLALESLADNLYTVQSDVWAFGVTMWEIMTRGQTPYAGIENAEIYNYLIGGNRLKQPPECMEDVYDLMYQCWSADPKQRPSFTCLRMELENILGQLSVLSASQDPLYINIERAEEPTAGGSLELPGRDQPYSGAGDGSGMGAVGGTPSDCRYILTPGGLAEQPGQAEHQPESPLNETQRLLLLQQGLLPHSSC
The note with it: ATP at Km; 30-minute pre-incubation; read-out: kinase inhibition in terms of IC50, TYRO3. The method in brief:
as §1

pIC50: −log10 of the molar value. Bounds are passed on as bounds.

T5 sequence (P29597 whole entry): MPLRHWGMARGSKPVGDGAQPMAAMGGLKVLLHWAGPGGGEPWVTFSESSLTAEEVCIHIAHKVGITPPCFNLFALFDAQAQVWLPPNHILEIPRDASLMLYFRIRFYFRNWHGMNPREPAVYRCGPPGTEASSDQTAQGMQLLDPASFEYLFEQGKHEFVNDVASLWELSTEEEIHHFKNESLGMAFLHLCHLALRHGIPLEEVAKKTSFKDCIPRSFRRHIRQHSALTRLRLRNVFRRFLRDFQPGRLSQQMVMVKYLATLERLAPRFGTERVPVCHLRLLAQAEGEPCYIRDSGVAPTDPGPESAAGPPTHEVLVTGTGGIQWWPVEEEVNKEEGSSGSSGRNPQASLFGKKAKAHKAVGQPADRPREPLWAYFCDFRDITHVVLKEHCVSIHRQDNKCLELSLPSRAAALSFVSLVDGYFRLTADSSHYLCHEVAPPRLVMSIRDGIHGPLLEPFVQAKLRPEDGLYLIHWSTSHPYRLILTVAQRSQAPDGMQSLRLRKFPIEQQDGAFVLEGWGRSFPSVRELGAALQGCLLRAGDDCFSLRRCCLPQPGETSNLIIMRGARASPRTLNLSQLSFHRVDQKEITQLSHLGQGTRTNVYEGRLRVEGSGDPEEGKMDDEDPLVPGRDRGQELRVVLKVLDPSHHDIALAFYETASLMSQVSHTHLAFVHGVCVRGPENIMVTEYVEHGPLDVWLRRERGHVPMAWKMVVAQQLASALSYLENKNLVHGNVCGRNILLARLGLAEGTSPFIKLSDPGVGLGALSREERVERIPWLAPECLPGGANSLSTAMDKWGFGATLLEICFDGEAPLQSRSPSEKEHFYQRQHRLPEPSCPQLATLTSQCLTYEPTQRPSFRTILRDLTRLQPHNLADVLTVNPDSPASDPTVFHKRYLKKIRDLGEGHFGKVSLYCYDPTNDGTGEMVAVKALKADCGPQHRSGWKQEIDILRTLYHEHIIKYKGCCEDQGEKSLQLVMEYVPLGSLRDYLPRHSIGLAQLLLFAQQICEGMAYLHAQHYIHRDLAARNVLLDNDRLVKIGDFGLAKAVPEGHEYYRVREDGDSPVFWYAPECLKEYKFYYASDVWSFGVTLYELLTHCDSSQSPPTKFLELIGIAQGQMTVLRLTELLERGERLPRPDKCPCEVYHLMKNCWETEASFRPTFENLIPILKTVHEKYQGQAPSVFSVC

For `COc1cc2nccc(Oc3ccc(NC(=O)c4cc(S(C)(=O)=O)n(-c5ccc(F)cc5)n4)c(F)c3)c2cc1OC` [Ex71, N-(4-((6,7-dimethoxyquinolin-4-yl)oxy)-2-fluorophenyl)-1-(4-fluorophenyl)-5-(methylsulfonyl)-1H-pyrazole-3-carboxamide], the pIC50 on ITK is at most 5.00; at RIPK1, at most 5.00; on RIPK2, 6.00 to 6.30; at RIPK3, 5.00 to 6.00; on TYK2, at most 5.00; on TYRO3, over 6.30.
For `COc1cc2nccc(Oc3ccc(NC(=O)c4cc(S(C)(=O)=O)n(-c5ccc(F)cc5)n4)cc3F)c2cc1OC` [Ex73, N-(4-((6,7-dimethoxyquinolin-4-yl)oxy)-3-fluorophenyl)-1-(4-fluorophenyl)-5-(methylsulfonyl)-1H-pyrazole-3-carboxamide], the negative logarithm of the IC50 (pIC50) at ITK and at TYRO3 was 5.00 to 6.00 throughout.
For the compound `COc1cc2nccc(Oc3ccc(NC(=O)c4cc(S(C)(=O)=O)n(-c5ccc(F)cc5)n4)cc3)c2cc1OC` [Ex72, N-(4-((6,7-dimethoxyquinolin-4-yl)oxy)phenyl)-1-(4-fluorophenyl)-5-(methylsulfonyl)-1H-pyrazole-3-carboxamide], on TYK2, the negative-log IC50 (pIC50) was 5.00 to 6.00.

In general, pIC50 refers to the negative decadic logarithm of the IC50, by convention in mol/L.
